# Tested on: adult patients with NF1-related PN
# Assay: Phase I dose-escalation: DLT, MTD, RP2D and drug-related TEAEs (CTCAE v5.0)
# Protocol: This is a multicenter, open-label, single-arm, non-randomized, phase I dose-escalation trial to evaluate the safety, tolerability, pharmacokinetic (PK), and anti-tumor activity of orally administered FCN-159 in adult patients with NF1 (NCT04954001). Phase I commenced with dose escalation in adult patients following a standard 3 + 3 design (Supplementary Table S1) to determine the maximum tolerated dose (MTD) of FCN-159 administered daily under fasting conditions (defined as no food or drink 1 h before and 2 h after each dose) in 28-day cycles. Study drug was dispensed at the study site and patient adherence was monitored by the records of drug dispensation and return. Patients were on treatment until PD, death, patient's voluntary withdrawal from study treatment, or study termination. The study was followed for 2 years after the last patient in. The starting dose was 4 mg, escalating in cohorts of at least three evaluable patients at 6 mg, 8 mg, and 12 mg until the MTD was determined. The starting dose in this study was determined based on available data from a phase 1a, first-in-human study of FCN-159 in patients with advanced NRAS ^mut+ melanoma at the time of study design. […] Dose expansion at a likely RP2D level enrolled approximately six patients. The highest dose level with a dose-limiting toxicity (DLT) incidence rate ≤ 33% (0/3 or 1/6 patients) was to be considered the MTD. If patients experienced grade ≥ 3 and/or unacceptable toxic events that were considered as at least possibly related to the study treatment, the study treatment was discontinued and supportive treatment was given in accordance with local treatment routines. If the toxicity returned to grade ≤ 2 within 28 days after the occurrence, and there was no progression on patients’ conditions or the investigator believed that patients could benefit from the study treatment, the original dose could be maintained or reduced after discussion with medical monitor. After completion of the dose escalation part of the study, PK, efficacy, safety, and tolerability data were analyzed to select the RP2D.
# Primary endpoints of the study were the DLT incidence rate, MTD, and RP2D. Secondary endpoints included other safety assessments, imaging tumor response (complete response [CR], PR, stable disease [SD], or progressive disease [PD]), and PK parameters of FCN-159. Adverse events were graded per CTCAE v5.0.
# All patients underwent a complete medical history, physical examination, Eastern Cooperative Oncology Group (ECOG) assessment, and laboratory analysis of test results. Drug-related TEAEs, serious adverse events (SAEs), TEAEs of grade ≥ 3 toxicity, and TEAEs leading to drug discontinuation were reviewed on an ongoing basis. Efficacy was assessed by radiologic scans and clinical assessment. Tumor assessments per Response Evaluation in Neurofibromatosis Schwannomatosis criteria were performed by investigators using MRI volumetric analysis every 4 cycles within the first 2 years (± 7 days) and every 6 cycles after 2 years (± 14 days) until PD, death, patient's voluntary withdrawal from study treatment, or study termination. MRI sequences of […], T1- and T2-weighted sequences were chosen and the software of Extended Brilliance Workspace, SIGNA Premier and uExceed were used for MRI volumetric analysis. The same software was used for all tumor assessments at baseline and subsequent assessed timepoints of the same patient. Pain was assessed by an 11-point numerical rating scale (NRS-11).
# The sample size for the dose-escalation study was estimated to be 24 based on the 3 + 3 method. Safety was analyzed in patients who received at least one dose of FCN-159 and had at least one safety assessment. DLT was assessed in the DLT analysis set, defined as patients who were enrolled in the dose-escalation study and met the DLT evaluation criteria.
compound,measurement,setting,value
Cn1c(=O)c(F)c(Nc2ccc(I)cc2F)c2c(=O)n(C3CC3)nc(-c3cccc(NS(=O)(=O)C4CC4)c3)c21 [FCN-159],Drug-related TEAE: Decreased appetite,6 mg (N = 4),0 n (%)
same,Drug-related TEAE: Dermatitis acneiform,6 mg (N = 4),0 n (%)
same,Drug-related TEAE: Diarrhea,6 mg (N = 4),0 n (%)
same,Drug-related TEAE: Drug eruption,6 mg (N = 4),2 (50.0) n (%)
same,Drug-related TEAE: Dyslipidemia,6 mg (N = 4),0 n (%)
same,Drug-related TEAE: Ejection fraction decreased,6 mg (N = 4),0 n (%)
same,Drug-related TEAE: Electrocardiogram QT prolonged,6 mg (N = 4),0 n (%)
same,Drug-related TEAE: Electrocardiogram abnormal,6 mg (N = 4),0 n (%)
same,Drug-related TEAE: Epistaxis,6 mg (N = 4),0 n (%)
same,Drug-related TEAE: Folliculitis,6 mg (N = 4),1 (25.0) n (%)
same,Drug-related TEAE: Functional gastrointestinal disorder,6 mg (N = 4),0 n (%)
same,Drug-related TEAE: Gamma-glutamyltransferase increased,6 mg (N = 4),1 (25.0) n (%)
same,Drug-related TEAE: Gingival pain,6 mg (N = 4),0 n (%)
same,Drug-related TEAE: Hyperlipidemia,6 mg (N = 4),0 n (%)
same,Drug-related TEAE: Hypertension,6 mg (N = 4),0 n (%)
same,Drug-related TEAE: Hypoalbuminemia,6 mg (N = 4),0 n (%)
same,Drug-related TEAE: Hypocalcemia,6 mg (N = 4),1 (25.0) n (%)
same,Drug-related TEAE: Hypophosphatemia,6 mg (N = 4),0 n (%)
same,Drug-related TEAE: Hypoproteinemia,6 mg (N = 4),0 n (%)
same,Drug-related TEAE: Immunoglobulins increased,6 mg (N = 4),1 (25.0) n (%)
same,Drug-related TEAE: Impetigo,6 mg (N = 4),0 n (%)
same,Drug-related TEAE: Left atrial enlargement,6 mg (N = 4),0 n (%)
same,Drug-related TEAE: Lipoprotein abnormal,6 mg (N = 4),0 n (%)
same,Drug-related TEAE: Malaise,6 mg (N = 4),0 n (%)
same,Drug-related TEAE: Menstrual disorder,6 mg (N = 4),0 n (%)
same,Drug-related TEAE: Mitral valve incompetence,6 mg (N = 4),1 (25.0) n (%)
same,Drug-related TEAE: Mouth ulceration,6 mg (N = 4),0 n (%)
same,Drug-related TEAE: Muscular weakness,6 mg (N = 4),0 n (%)
same,Drug-related TEAE: Oedema peripheral,6 mg (N = 4),1 (25.0) n (%)
same,Drug-related TEAE: Pain in extremity,6 mg (N = 4),0 n (%)
same,Drug-related TEAE: Paronychia,6 mg (N = 4),2 (50.0) n (%)
same,Drug-related TEAE: Prealbumin decreased,6 mg (N = 4),0 n (%)
same,Drug-related TEAE: Protein urine present,6 mg (N = 4),2 (50.0) n (%)
same,Drug-related TEAE: Pruritus,6 mg (N = 4),0 n (%)
same,Drug-related TEAE: QRS axis abnormal,6 mg (N = 4),0 n (%)
same,Drug-related TEAE: Rash,6 mg (N = 4),1 (25.0) n (%)
same,Drug-related TEAE: Sinus arrhythmia,6 mg (N = 4),0 n (%)
same,Drug-related TEAE: Sinus bradycardia,6 mg (N = 4),0 n (%)
same,Drug-related TEAE: Sinusitis,6 mg (N = 4),0 n (%)
same,Drug-related TEAE: Skin exfoliation,6 mg (N = 4),0 n (%)
same,Drug-related TEAE: Specific gravity urine increased,6 mg (N = 4),2 (50.0) n (%)
same,Drug-related TEAE: Stomatitis,6 mg (N = 4),2 (50.0) n (%)
same,Drug-related TEAE: Supraventricular extrasystoles,6 mg (N = 4),0 n (%)
same,Drug-related TEAE: Total bile acids increased,6 mg (N = 4),2 (50.0) n (%)
same,Drug-related TEAE: Tricuspid valve incompetence,6 mg (N = 4),1 (25.0) n (%)
same,Drug-related TEAE: Urinary occult blood positive,6 mg (N = 4),1 (25.0) n (%)
same,Drug-related TEAE: Urinary sediment present,6 mg (N = 4),0 n (%)
same,Drug-related TEAE: Urinary tract infection,6 mg (N = 4),1 (25.0) n (%)
same,Drug-related TEAE: Urine ketone body present,6 mg (N = 4),0 n (%)
same,Drug-related TEAE: Urobilinogen urine increased,6 mg (N = 4),2 (50.0) n (%)
same,Drug-related TEAE: Urticaria,6 mg (N = 4),0 n (%)
same,Drug-related TEAE: Vision blurred,6 mg (N = 4),0 n (%)
same,Drug-related TEAE: Visual acuity reduced,6 mg (N = 4),1 (25.0) n (%)
same,Drug-related TEAE: pH urine decreased,6 mg (N = 4),1 (25.0) n (%)
same,Drug-related TEAE: pH urine increased,6 mg (N = 4),0 n (%)
same,Subjects with any drug-related TEAE,6 mg (N = 4),4 (100) n (%)
same,Drug-related TEAE: Abdominal pain,8 mg (N = 8),1 (12.5) n (%)
same,Drug-related TEAE: Acne,8 mg (N = 8),0 n (%)
same,Drug-related TEAE: Acne pustular,8 mg (N = 8),1 (12.5) n (%)
same,Drug-related TEAE: Alanine aminotransferase increased,8 mg (N = 8),1 (12.5) n (%)
same,Drug-related TEAE: Albumin globulin ratio decreased,8 mg (N = 8),1 (12.5) n (%)
same,Drug-related TEAE: Alopecia,8 mg (N = 8),1 (12.5) n (%)
same,Drug-related TEAE: Amylase increased,8 mg (N = 8),0 n (%)
same,Drug-related TEAE: Anemia,8 mg (N = 8),1 (12.5) n (%)
same,Drug-related TEAE: Aortic dilatation,8 mg (N = 8),1 (12.5) n (%)
same,Drug-related TEAE: Aspartate aminotransferase increased,8 mg (N = 8),0 n (%)
same,Drug-related TEAE: Asthenia,8 mg (N = 8),0 n (%)
same,Drug-related TEAE: Beta globulin decreased,8 mg (N = 8),0 n (%)
same,Drug-related TEAE: Beta globulin increased,8 mg (N = 8),0 n (%)
same,Drug-related TEAE: Blood alkaline phosphatase increased,8 mg (N = 8),3 (37.5) n (%)
same,Drug-related TEAE: Blood bilirubin increased,8 mg (N = 8),2 (25.0) n (%)
same,Drug-related TEAE: Blood creatine phosphokinase increased,8 mg (N = 8),2 (25.0) n (%)
same,Drug-related TEAE: Blood fibrinogen increased,8 mg (N = 8),0 n (%)
same,Drug-related TEAE: Blood lactate dehydrogenase increased,8 mg (N = 8),1 (12.5) n (%)
same,Drug-related TEAE: Blood pressure increased,8 mg (N = 8),0 n (%)
same,Drug-related TEAE: Blood urea increased,8 mg (N = 8),1 (12.5) n (%)
same,Drug-related TEAE: Blood uric acid increased,8 mg (N = 8),0 n (%)
same,Drug-related TEAE: Breath odor,8 mg (N = 8),1 (12.5) n (%)
same,Drug-related TEAE: Capillary disorder,8 mg (N = 8),0 n (%)
same,Drug-related TEAE: Constipation,8 mg (N = 8),1 (12.5) n (%)
same,Drug-related TEAE: Decreased appetite,8 mg (N = 8),1 (12.5) n (%)
same,Drug-related TEAE: Dermatitis acneiform,8 mg (N = 8),1 (12.5) n (%)
same,Drug-related TEAE: Diarrhea,8 mg (N = 8),1 (12.5) n (%)
same,Drug-related TEAE: Drug eruption,8 mg (N = 8),2 (25.0) n (%)
same,Drug-related TEAE: Dyslipidemia,8 mg (N = 8),1 (12.5) n (%)
same,Drug-related TEAE: Ejection fraction decreased,8 mg (N = 8),1 (12.5) n (%)
same,Drug-related TEAE: Electrocardiogram QT prolonged,8 mg (N = 8),1 (12.5) n (%)
same,Drug-related TEAE: Electrocardiogram abnormal,8 mg (N = 8),0 n (%)
same,Drug-related TEAE: Epistaxis,8 mg (N = 8),1 (12.5) n (%)
same,Drug-related TEAE: Folliculitis,8 mg (N = 8),4 (50.0) n (%)
same,Drug-related TEAE: Functional gastrointestinal disorder,8 mg (N = 8),1 (12.5) n (%)
same,Drug-related TEAE: Gamma-glutamyltransferase increased,8 mg (N = 8),0 n (%)
same,Drug-related TEAE: Gingival pain,8 mg (N = 8),1 (12.5) n (%)
same,Drug-related TEAE: Hyperlipidemia,8 mg (N = 8),0 n (%)
same,Drug-related TEAE: Hypertension,8 mg (N = 8),1 (12.5) n (%)
same,Drug-related TEAE: Hypoalbuminemia,8 mg (N = 8),1 (12.5) n (%)
same,Drug-related TEAE: Hypocalcemia,8 mg (N = 8),1 (12.5) n (%)
same,Drug-related TEAE: Hypophosphatemia,8 mg (N = 8),1 (12.5) n (%)
same,Drug-related TEAE: Hypoproteinemia,8 mg (N = 8),1 (12.5) n (%)
same,Drug-related TEAE: Immunoglobulins increased,8 mg (N = 8),1 (12.5) n (%)
same,Drug-related TEAE: Impetigo,8 mg (N = 8),0 n (%)
same,Drug-related TEAE: Left atrial enlargement,8 mg (N = 8),1 (12.5) n (%)
same,Drug-related TEAE: Lipoprotein abnormal,8 mg (N = 8),0 n (%)
same,Drug-related TEAE: Malaise,8 mg (N = 8),0 n (%)
same,Drug-related TEAE: Menstrual disorder,8 mg (N = 8),0 n (%)
same,Drug-related TEAE: Mitral valve incompetence,8 mg (N = 8),2 (25.0) n (%)

# — PMC10318822, “Phase 1 dose-escalation study to evaluate the safety, tolerability, pharmacokinetics, and anti-tumor activity of FCN-159 in adults with neurofibromatosis type 1-related unresectable plexiform neurofibromas” (BMC Medicine, 2023)
